This note sets out measurements from article PMC9917023, “Stabilization of Monomeric Tau Protein by All D-Enantiomeric Peptide Ligands as Therapeutic Strategy for Alzheimer’s Disease and Other Tauopathies” (International Journal of Molecular Sciences, 2023).

Experiment [1] concerns the target T1, monomeric full-length tau 441 (Homo sapiens, UniProt P10636).
T1 construct: The gene for the human full-length tau was prepared on a plasmid called pET28a(+)-tau2N4R; made in house; host or cells: E. coli pRare
Nature of the experiment: SPR measurement (Biacore T200, multicycle). Format: binding. The note with it: compound immobilized on CM5 chip, tau as analyte, 1:1 fit, dissociation time 60 min; read-out: dissociation rate (kd). How it is done: (§1) Figure 8 SPR measurements of TF2D-5 and TF2D-5a with monomeric full-length tau 441 and tau repeat region 3. […] The concentration of tau during the measurement ranged from 3.125 nM to 25 nM. […] Tau was used in concentrations ranging from 31.25 nM to 500 nM. SPR measurements of A and B were recorded on a T200 Biacore instrument, the corresponding compound was immobilized on a CM5 chip from Cytiva while monomeric tau served as analyte. Tests were performed with TBS pH 7.4, 0.05% Tween20 and 10 µM DTT as running buffer. Fit calculation was completed with the internal evaluation software of the T200 Biacore. A 1:1 model was used for both fits. […] The concentrations for the single cycle measurement ranged from 3.125 nM to 100 nM. Measurements of C were performed on a Biacore 8K using a CM5 chip from Cytiva. TF2D-5a was immobilized on the chip while the R3 region of tau was used as analyte. PBS pH 7.4 with 0.05% Tween20 as used as running buffer. Fit calculation was performed using the Biacore insight evaluation software and a 1:1 model. […]
Measurements of TF2D-5 and TF2D-5a against full-length tau 441 were performed on a Biacore T200 (Biacore, GE Healthcare, Uppsala, Sweden) using multicycle experiments. […] The data were evaluated using the Biacore T200 Evaluation Software 3.2 using a 1:1 fit (RI = 0).
For orientation: Surface plasmon resonance follows binding to a sensor surface in real time, without labels.

The next experiment addresses T2, R3 domain of tau (Homo sapiens, UniProt P10636).
T2 construct: purchased CASLO ApS, Lyngby, Denmark; host or cells: synthetic peptide
Nature of the experiment: SPR measurement (Biacore 8K, single cycle). The note with it: single cycle kinetics, peptide immobilized on CM5 chip, R3 (304-336) 3.125-100 nM as analyte, PBS pH 7.4, 0.05% Tween20, 1:1 fit. Format: binding. How it is done:
as §1
Measurements of TF2D-5a against the R3 domain of tau were performed on a Biacore 8K (GE Healthcare, Uppsala, Sweden) using a single cycle experiment. […] The data were analyzed using the Biacore insight evaluation software 3.0.12.15655 using a 1:1 fit.

Structures are written as SMILES. Non-standard residues stand in square brackets, D forms with d. Residues, ends and D or L forms follow the SMILES beside them.

T1 sequence (P10636 1-441 isoform P10636-8): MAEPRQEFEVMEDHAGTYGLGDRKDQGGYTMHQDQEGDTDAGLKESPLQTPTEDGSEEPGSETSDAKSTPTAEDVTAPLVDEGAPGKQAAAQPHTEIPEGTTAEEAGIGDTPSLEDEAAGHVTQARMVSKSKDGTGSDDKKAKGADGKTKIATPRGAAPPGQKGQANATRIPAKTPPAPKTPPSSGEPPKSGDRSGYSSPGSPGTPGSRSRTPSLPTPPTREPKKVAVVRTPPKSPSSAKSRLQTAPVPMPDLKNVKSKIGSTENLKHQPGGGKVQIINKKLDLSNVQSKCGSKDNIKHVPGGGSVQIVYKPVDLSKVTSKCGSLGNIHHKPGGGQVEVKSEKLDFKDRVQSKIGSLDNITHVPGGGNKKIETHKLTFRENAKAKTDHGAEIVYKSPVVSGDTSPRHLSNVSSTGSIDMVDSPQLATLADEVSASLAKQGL
T2 sequence (P10636 622-652 limits assumed): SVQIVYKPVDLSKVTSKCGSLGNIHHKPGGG

With `CC[C@@H](C)[C@@H](NC(=O)[C@@H](Cc1c[nH]cn1)NC(=O)CNC(=O)CNC(=O)[C@H]1CCCN1C(=O)[C@H](NC(=O)[C@@H](CCCCN)NC(=O)[C@@H](Cc1ccccc1)NC(=O)[C@@H](CC(C)C)NC(=O)[C@H](NC(=O)[C@@H](CCC(N)=O)NC(=O)[C@@H](Cc1ccc(O)cc1)NC(=O)CNC(=O)CNC(=O)[C@H](N)CC(=O)O)[C@H](C)CC)[C@H](C)CC)C(=O)N[C@H](Cc1c[nH]cn1)C(N)=O` [TF2D-5] (H-[dD]GG[dY][dQ][dI][dL][dF][dK][dI][dP]GG[dH][dI][dH]-NH2), in experiment [1], the koff amounted to 1.9e-05 s⁻¹.

`CC[C@@H](C)[C@@H](NC(=O)[C@@H](Cc1c[nH]cn1)NC(=O)CNC(=O)CNC(=O)[C@H]1CCCN1C(=O)[C@H](NC(=O)[C@@H](CCCCN)NC(=O)[C@@H](Cc1ccccc1)NC(=O)[C@@H](CC(C)C)NC(=O)[C@H](NC(=O)[C@@H](CCC(N)=O)NC(=O)[C@@H](Cc1ccc(O)cc1)NC(=O)CNC(=O)CNC(=O)[C@H](N)CC(=O)O)[C@H](C)CC)[C@H](C)CC)C(=O)N[C@H](Cc1c[nH]cn1)C(=O)N[C@H](CCCNC(=N)N)C(=O)N[C@H](CCCNC(=N)N)C(=O)N[C@H](CCCNC(=N)N)C(=O)N[C@H](CCCNC(=N)N)C(=O)N[C@H](CCCNC(=N)N)C(N)=O` [TF2D-5a] (H-[dD]GG[dY][dQ][dI][dL][dF][dK][dI][dP]GG[dH][dI][dH][dR][dR][dR][dR][dR]-NH2) showed a Kd on R3 domain of tau of 7.06 pM. In experiment [1], the koff is 4.3e-05 s⁻¹.

Broadly, the Kd is the equilibrium constant for the complex coming apart. A higher Kd goes with a looser complex.
